What was measured:
hPPARdelta = target: T1, hPPARdelta (Homo sapiens, UniProt Q03181); experiment: Gal4-hPPARdelta transactivation assay in COS-7 cells (luciferase); type: cell-based
T1 construct: Gal4-hPPARδ(LBD); Gal4 (fusion partner); expressed in transfected cells; host or cells: COS-7 (monkey kidney)
T1 sequence (Q03181 211-439 limits assumed): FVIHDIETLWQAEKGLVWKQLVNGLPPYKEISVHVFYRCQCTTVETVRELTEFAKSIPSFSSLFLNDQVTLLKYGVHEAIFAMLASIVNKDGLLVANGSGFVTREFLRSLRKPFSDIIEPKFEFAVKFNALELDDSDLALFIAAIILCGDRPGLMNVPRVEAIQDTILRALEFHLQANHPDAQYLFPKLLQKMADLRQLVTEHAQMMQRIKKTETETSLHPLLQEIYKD
In short: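 COS-7 cells transiently co-transfected with Gal4-hPPAR chimeras and a Gal4(RE)_TkpGL3 luciferase reporter (1/50 ratio) were seeded at 20,000 cells/well for 4 h, then treated in 2% lipid-free synthetic serum medium (0.1% DMSO). EC50 and Hill slope came from fitted luciferase curves. Emax is relative to fenofibrate 100 μM (α), rosiglitazone 10 μM (γ) or GW501516 1 μM (δ).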

[1] = Compound pharmacokinetics study in mice (plasma and brain); type: in vivo; settings: mouse; for AUC(0-t): iv (2 mpk) or PO (10 mpk), followed for 24 hours
Experimental: Compound Pharmacokinetics Study in Mice
The compound was administered to six male swiss mice (five weeks old) by the PO route and six male mice by the iv route (caudal vein). […] For the PO route (10 mg/kg), the compound was dissolved in a solution of 0.5% Methyl cellulose (ref sigma M0262) and 0.3% Polysorbate 80 (Tween 80—ref sigma P8074). During the iv administration and blood sampling animals were anesthetized with Isofluorane® (from Belamont) using an anaesthetic system (Minerve). At the precise time-point, blood samplings were done at the retro-orbital sinus, with a capillary tube. The blood volume collected per each time-point was 0.2-0.3 ml. Blood samples were collected into tubes containing both lithium and heparin and then centrifuged at 2500 rpm at 4° C. Plasma was removed and transferred into polypropylene tubes. Individual plasma aliquots were frozen at −20° C. (±5° C.) and stored until analysis.
After blood sampling, the animals were perfused with 7 ml cold saline solution directly into the heart to extract the maximum of blood from the brain vasculature. Animals were then beheaded and the brain tissue collected and frozen at −20° C. (±5° C.) and stored until analysis. Prior to the sample analysis, the suitability of the analytical method to detect the compounds to be evaluated was performed as described below. The molecular and daughter ions were selected for each molecule by direct infusion into the MS-MS system. For those plasma samples which are mixed prior to analysis, precaution was taken to avoid mixing common moieties both with regards to the parent compounds as well as potential metabolites. According to the expected sensitivity, 8 point calibration standards (1, 5, 10, 50, 100, 500, 1000 and 5000 ng/mL) were run using standard conditions which consist to LC/MS/MS system with C18 column after precipitation of the plasma proteins with acetonitrile before the start of the analytical test. Calibration standards were performed in each matrix (plasma and brain). Prior to analysis, 100 μL of each plasma sample was mixed with 300 μL acetonitrile. Following protein precipitation, samples were vortex mixed for 30 seconds, centrifuged 5 min at 15000 tr/min and the supernatant was removed. Analyses were performed using LC/MS/MS determination according to previous analytical test results. Brains were homogenized with a potter using water (1/1, w/w). 100 μl of the homogenate was mixed with 100 μl of acetonitrile. The mixture was mixed (Vortex) for 30 seconds, then centrifuged during 5 min at 15000 tr/min. Brain homogenate supernatants were directly measured by LC/MS/MS after centrifugation. LC-MS/MS system was used with a C18 Kromasil column and API4000® from Applied Biosystem or Quattro® from Waters as mass spectrometers.

APPPS1 mice = experiment: Alzheimer's disease model (APPPS1 mice): Morris-Water-Maze test; type: in vivo, mouse; settings: 60 days, +/- standard deviation
[2] = test system: brain amyloid-beta levels; experiment: Alzheimer's disease model (APPPS1 mice): brain amyloid-beta levels by ELISA; type: in vivo, mouse; settings: 60 days, +/- standard deviation

COC(c1ccc(OC(F)(F)F)cc1)C1CC1c1cc(C)c(OC(C)(C)C(=O)O)c(C)c1 (single isomer, unassigned) [Cpd 14-1-2, 2-(4-(2-(methoxy(4-(trifluoromethoxy)phenyl)methyl)cyclopropyl)-2,6-dimethylphenoxy)-2-methylpropanoic acid]
EC50 (hPPARdelta; Gal4-hPPARδ(LBD) transactivation): 4 nM | Gal4-hPPARδ(LBD) TOP (% ref) (hPPARdelta; maximal relative activation vs reference, listed as cpd 14-1-2): 90 % ref | bioavailability ([1]; male, Swiss, plasma, PO (10 mpk) versus iv (2 mpk), read-out: F % (bioavailability)): 93% | AUC(0-t) ([1]; male, Swiss, brain): 26700 ng·h/mL | Kp ([1]; male, Swiss, from AUC comparison brain to plasma, read-out: part of the administered compound that penetrates into the brain): 0.37 | AUC(0-t) ([1]; male, Swiss, plasma): 71800 ng·h/mL | brain/plasma ratio ([1]; AUC comparison (brain exposure to plasma exposure ratio)): 0.37 | F % (bioavailability) ([1]; PO (10 mpk) versus iv (2 mpk)): 92.9% | Morris-Water maze distance, mean reduction from untreated APPPS1 mice (APPPS1 mice; 1 mpk per day): 22.6 % +/− 21% (*) | Morris-Water maze latency, mean reduction from untreated APPPS1 mice (APPPS1 mice; 1 mpk per day): 45.6 % +/− 16 % (**) | Morris-Water maze distance, mean reduction from untreated APPPS1 mice (APPPS1 mice; 10 mpk per day): 31.1 % +/− 18 % (**) | Morris-Water maze latency, mean reduction from untreated APPPS1 mice (APPPS1 mice; 10 mpk per day): 39.9 % +/− 20 % (**) | amyloid-beta peptide Aβ 1-38, mean reduction from untreated APPPS1 mice ([2]; 1 mpk per day): 76 % +/− 16 % (**) | amyloid-beta peptide Aβ 1-40, mean reduction from untreated APPPS1 mice ([2]; 1 mpk per day): 55 % +/− 17 % (**) | amyloid-beta peptide Aβ 1-42, mean reduction from untreated APPPS1 mice ([2]; 1 mpk per day): 56 % +/− 19 % (**) | amyloid-beta peptide Aβ 1-38, mean reduction from untreated APPPS1 mice ([2]; 10 mpk per day): 97 % +/− 3 % (**) | amyloid-beta peptide Aβ 1-40, mean reduction from untreated APPPS1 mice ([2]; 10 mpk per day): 72 % +/− 14 % (**) | amyloid-beta peptide Aβ 1-42, mean reduction from untreated APPPS1 mice ([2]; 10 mpk per day): 74 % +/− 14 % (**)
